For 1 compound, IC50 results are on record in PMC10648586, “Jasmone Is a Ligand-Selective Allosteric Antagonist of Aryl Hydrocarbon Receptor (AhR)” (International Journal of Molecular Sciences, 2023).

For the assay, the target named is T1, mouse AhR (mAhr) (Mus musculus, UniProt P30561).
T1 construct: cytosolic protein from Hepa1c1c7 cells
T1 sequence (P30561 10-848): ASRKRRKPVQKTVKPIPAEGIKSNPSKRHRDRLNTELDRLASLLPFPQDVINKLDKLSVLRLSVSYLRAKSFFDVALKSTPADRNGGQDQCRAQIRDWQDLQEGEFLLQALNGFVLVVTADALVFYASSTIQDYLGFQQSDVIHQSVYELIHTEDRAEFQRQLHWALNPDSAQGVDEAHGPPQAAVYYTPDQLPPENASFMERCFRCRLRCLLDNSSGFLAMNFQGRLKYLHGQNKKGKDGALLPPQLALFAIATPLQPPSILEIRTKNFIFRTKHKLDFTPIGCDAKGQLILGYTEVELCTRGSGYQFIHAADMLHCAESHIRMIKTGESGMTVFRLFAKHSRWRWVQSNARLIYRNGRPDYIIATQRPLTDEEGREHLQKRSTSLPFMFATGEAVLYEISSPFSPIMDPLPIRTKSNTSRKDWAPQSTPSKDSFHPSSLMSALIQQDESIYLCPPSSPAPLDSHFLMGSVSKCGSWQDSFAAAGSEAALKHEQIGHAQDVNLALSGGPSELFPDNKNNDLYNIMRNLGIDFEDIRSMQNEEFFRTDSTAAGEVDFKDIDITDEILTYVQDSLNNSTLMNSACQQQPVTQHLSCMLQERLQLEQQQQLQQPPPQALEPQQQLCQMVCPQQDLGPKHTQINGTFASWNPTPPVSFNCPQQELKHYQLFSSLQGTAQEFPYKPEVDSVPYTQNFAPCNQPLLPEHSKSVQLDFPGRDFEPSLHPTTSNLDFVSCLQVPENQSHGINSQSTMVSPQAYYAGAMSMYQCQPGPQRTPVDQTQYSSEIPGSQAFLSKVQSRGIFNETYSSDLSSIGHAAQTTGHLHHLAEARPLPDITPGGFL
Description: [3H]-TCDD competitive radioligand binding; partial displacement (about […]) at […].

Consider `CC/C=C\CC1=C(C)CCC1=O` [jasmone, 3-methyl-2-[(2Z)-pent-2-en-1-yl]cyclopent-2-en-1-one], for which the IC50 (usually the concentration needed to halve the response being measured) was > 609 µM.
